Test results reported in US12404255B2, “Compound and pharmaceutical composition containing same for treating or preventing neural damage, neural disease, or developmental disorder through promoting proliferation, differentiation, and/or regeneration of neural cells” (ETNOVA THERAPEUTICS CORP., priority 2020, dated 2025).

Legend:
[1] = tested on: human neuroblastoma SH-SY5Y; assay: Cell viability test using CCK-8; type: cell-based; details: CCK-8, 0-50 μM, 24, 48, 72 hours
Method: Cell viability analysis of a nerve cell line using CCK-8 was performed on human neuroblastoma SH-SY5Y as an undifferentiated nerve cell line. For reference, the analysis using the CCK-8 (Cell counting kit-8) was based on a highly water-soluble tetrazolium salt-SST-8. The analysis is based on the fact that when [2-(2-methoxy-4-nitrophenyl)-3-(4-nitrophenyl)(2,4-disulfophenyl)-2H-tetrazolium, monosodium salt] is reduced under presence of an electron mediator, a water-soluble formazan orange dye is produced, and an amount of the formazan dye produced by dehydrogenase in cells is directly proportional to the number of living cells. The specific experimental method is as follows.
The next day, the growth medium was removed therefrom. […] At 2 hours before a harvest time, 10 μL of CCK-8 solution was added to each well and the cells were incubated for an additional 2 hours. […] Cell viability (%)=B/A×100(%) [Cell viability calculation equation]
(In the equation, A denotes an absorbance value measured in a control well, and B denotes an absorbance value measured in the well containing the drug).

SH-SY5Y [2] = assay: Neurite elongation and new neuron generation and growth using immunofluorescence staining (color histogram); type: cell-based, human; details: 10 μM, day 3
Method: For cell viability analysis, stabilized cells were planted in a 60 mm dish at a density of ×10^5 cells/dish. […] The next day, the growth medium was removed therefrom. […] Then, the cells were incubated therein for 1, 3, and 5 days, and under at 37° C. and 5% C02 condition. The cells were harvested and were washed with DPBS, and fixed with 10% Neutral Buffered Formalin for 10 minutes, washed 3 times with Tris-buffered saline (TBS), and then a reaction thereof was carried out for 15 minutes in 0.3% Triton X-100 (in TBS). The cells were washed three times in TBS, and a solution of 5% Bovine serum albumin (BSA) and Normal Goat Serum (NGS) in TBS was added thereto and a reaction thereof was carried out at 4° C. for 24 hours. Differentiation into the nerve cells and formation of the neurite were identified using j-III tubulin primary antibody as a neuron specific marker and doublecortin primary antibody as a newborn immature neuron marker. […] The cells were washed three times with TBS, and were mounted (VECTASHIELD® Mounting Medium with DAPI; Vector Laboratories, Burlingame, CA, USA), and images were acquired with a fluorescence microscope. […]
The color histogram was measured using the ImageJ program.

[3] = Solubility test in deionized water; type: physicochemical
Method: In order to check the solubility of the compound according to the present disclosure, each of MMB-11903B according to the present disclosure prepared in the Preparation Example and ATRA was added to 1 mL of deionized water at a concentration of 100 mM (Compound MMB-11903B according to the present disclosure: 72.8 mg/mL; ATRA: 30.0 mg/mL) and each mixed solution was stirred for dissolution by lightly vortexing the same. After each of the prepared solution of the compound MMB-11903B according to the present disclosure and the prepared ATRA solution was left at room temperature for 20 minutes, an image thereof was taken again to observe a dissolution state of each compound in each solution (FIG. 1).
Thus, the compound MMB-11903B according to the present disclosure may be easily dissolved in the solvent such as water, so that it has high solubility, and further has solubility stability, so that it may maintain a dissolved state even after being left for a long time.

SH-SY5Y [4] = details: human, 24 h, 200 μM
Source text: (§1) The calculated values were graphed using the GraphPad Prism application.

SH-SY5Y [5] = assay: Cell proliferation effect using immunofluorescence staining (Ki-67 positive cells); type: cell-based, human; details: 1st day of exposure
Method: The number of cells which were positive relative to Ki-67 as a marker for neuronal proliferation was analyzed. The number of the positive cells was automatically obtained using the ImageJ program. Ki-67 positive cells (%)=(ki-67 positive cell number/DAPI positive cell number)×100 [Calculation equation of Ki-67 positive cell number]
The calculated values were graphed using the GraphPad Prism application. […] The statistical significance of the obtained values was identified via one-way ANOVA with Dunnett's multiple comparison test. *p<0.5, **p<0.1, ***p<0.01 vs. control, #p<0.5, ##p<0.1 vs. DO3A, †p<0.5, †††p<0.01 vs. ATRA indicate presence of statistical significance.

SH-SY5Y [6] = assay: Changes in morphology of nerve cells (inverted microscope); type: cell-based, human; design: neurite elongation / change in cell morphology: dose or concentration left out as unconfirmed; details: microscope image
Method: For cell viability analysis, stabilized cells were planted in a 60 mm dish at a density of ×10^5 cells/dish. […] The next day, the growth medium was removed therefrom. […] Then, the cells were incubated therein for 1, 3, and 5 days, and under at 37° C. and 5% CO2 condition. Cell morphology was imaged with a Nikon inverted microscope (Nikon, ECLIPSE Ts2, Nikon Corporation, Tokyo, Japan).

SH-SY5Y [7] = assay: Neurite elongation promoting effect using immunofluorescence staining; type: cell-based, human; details: 10 μM
Source text: as §1

SMILES	cell viability, dependence on concentration and time [1]	expression level of new neurons (color histogram) (SH-SY5Y [2])	dissolution state immediately after dissolution ([3]; 100 mM in 1 mL deionized water, light vortexing, initial state)	dissolution state after being left ([3]; 100 mM in deionized water, left at room temperature for 20 minutes)	cytotoxicity (SH-SY5Y [4])	cell proliferation (Ki-67 positive cells) versus control (SH-SY5Y [5])	neurite elongation / change in cell morphology (SH-SY5Y [6]; 1, 3, and 5 days)	apoptosis due to cytotoxicity (SH-SY5Y [6]; 5-20 μM, 1-5 days)	neurite length versus control (SH-SY5Y [7]; ImageJ measurement after fluorescent staining)	neurite elongation in fluorescence image (SH-SY5Y [7]; 1, 3, and 5 days, tubulin and doublecortin staining)
CC1=C(/C=C/C(C)=C/C=C/C(C)=C/C(=O)O)C(C)(C)CCC1 [ATRA, all-trans retinoic acid]	the higher the concentration of ATRA and the longer the time, the lower the cell viability	low expression level of new neurons	uniformly dissolved in the solution initially	separated from the solvent and was precipitated over time	approximately 55%	did not exhibit a significant difference from that of the control				
O=C(O)CN1CCNCCN(CC(=O)O)CCN(CC(=O)O)CC1 [DO3A]						approximately two times larger than the control	neurite elongation was not observed	observed at 10 μM, 5 days and at 20 μM, and 3 days	did not achieve the neurite elongation as in the control	neurite elongation was not observed
